Test results as given in patent EP1484330B1, “Triazole compouds suitable for treating disorders that respond to modulation of the dopamine D3 receptor” (Abbott GmbH & Co. KG, priority 2003, dated 2004).

How the values were obtained:
[1] = Determination of the concentration of compounds in plasma and brain following oral dosing; assay type: in vivo, Male Sprague-Dawley rats; conditions: rats, 10 mg/kg orally by gavage; samples at 0.5, 3 and 8 hours; value Cmax
Procedure: Male Sprague-Dawley rats were used in this study (2 to 4 per experiment). The animals were fasted overnight prior to dosing and throughout the duration of the study but were permitted water ad libitum. Each rat received a 10 mg/kg (5 mL/kg) dose orally by gavage. At 0.5, 3 and 8 hours after drug administration, three animals were put under deep anesthesia using isoflurane and euthanized by bleeding (cardiac puncture) under deep isoflurane anesthesia. EDTA blood samples and brain tissue will be collected from each rat. Upon collection, the samples were promptly placed in an ice bath, and within 2 hours after sample collection, the blood was centrifuged at about 4°C. The resulting brain and plasma samples were placed in clean glass tubes and stored in a freezer until analysis. The plasma samples were assayed for parent compound using appropriate liquid chromatography - mass spectrometry procedures. The results are given in table 2 along with results obtained using the two reference compounds A and B, and illustrate the high brain concentrations attainable with the compounds of the invention.

[2] = biological target: T1, human dopamine D3 receptors (Homo sapiens, UniProt P35462); experiment: Receptor binding study, displacement of [125I]-iodosulpride from HEK-293 cell membranes; conditions: for Ki: 0.1 nM [125I]-iodosulpride, HEK-293 membranes, 25°C, 60 minutes; for Selectivity [Ki(D2)/Ki(D3)]: ratio Ki(D2)/Ki(D3)
T1 construct: expressed in transfected cells; membranes used
T1 sequence (P35462 whole entry): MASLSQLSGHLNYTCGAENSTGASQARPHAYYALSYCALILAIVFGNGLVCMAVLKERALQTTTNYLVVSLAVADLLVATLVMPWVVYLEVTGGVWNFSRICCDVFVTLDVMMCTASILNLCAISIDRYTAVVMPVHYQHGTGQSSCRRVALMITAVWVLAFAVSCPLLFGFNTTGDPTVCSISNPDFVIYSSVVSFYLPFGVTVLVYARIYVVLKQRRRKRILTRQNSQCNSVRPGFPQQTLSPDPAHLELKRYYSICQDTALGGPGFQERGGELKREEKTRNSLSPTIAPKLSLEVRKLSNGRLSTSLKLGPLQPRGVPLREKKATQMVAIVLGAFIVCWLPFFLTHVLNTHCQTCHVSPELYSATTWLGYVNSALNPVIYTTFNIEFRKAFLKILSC
Procedure: (§1) The substance to be tested was either dissolved in methanol/Chremophor® (BASF-AG) or in dimethyl sulfoxide and then diluted with water to the desired concentration.
(§2) Each assay mixture was run in triplicate.
The incubation buffer contained 50 mM tris, 120 mM NaCl, 5 mM KCI, 2 mM CaCl2, 2 mM MgCl2 and 0.1% bovine serum albumin, 10 µM quinolone and 0.1% ascorbic acid (prepared fresh daily). The buffer was adjusted to pH 7.4 with HCl.
(§3) After having been incubated at 25°C for 60 minutes, the assay mixtures were filtered through a Wathman GF/B glass fiber filter under vacuum using a cell collecting device. The filters were transferred to scintillation viols using a filter transfer system. After 4 ml of Ultima Gold® (Packard) have been added, the samples were shaken for one hour and the radioactivity was then counted in a Beta-Counter (Packard, Tricarb 2000 or 2200CA). The cpm values were converted into dpm using a standard quench series and the program belonging to the instrument.
(§4) The inhibition curves were analyzed by means of iterative nonlinear regression analysis using the Statistical Analysis System (SAS) which is similar to the "LIGAND" program described by Munson and Rodbard.

[3] = biological target: T2, human dopamine D2L receptors (long isoform) (Homo sapiens, UniProt P14416); experiment: Receptor binding study, displacement of [125I] iodospiperone from HEK-293 cell membranes; conditions: 0.01 nM [125I] iodospiperone, HEK-293 membranes, 25°C, 60 minutes, read-out: Ki D2
T2 construct: expressed in transfected cells; membranes used
T2 sequence (P14416 whole entry, canonical isoform): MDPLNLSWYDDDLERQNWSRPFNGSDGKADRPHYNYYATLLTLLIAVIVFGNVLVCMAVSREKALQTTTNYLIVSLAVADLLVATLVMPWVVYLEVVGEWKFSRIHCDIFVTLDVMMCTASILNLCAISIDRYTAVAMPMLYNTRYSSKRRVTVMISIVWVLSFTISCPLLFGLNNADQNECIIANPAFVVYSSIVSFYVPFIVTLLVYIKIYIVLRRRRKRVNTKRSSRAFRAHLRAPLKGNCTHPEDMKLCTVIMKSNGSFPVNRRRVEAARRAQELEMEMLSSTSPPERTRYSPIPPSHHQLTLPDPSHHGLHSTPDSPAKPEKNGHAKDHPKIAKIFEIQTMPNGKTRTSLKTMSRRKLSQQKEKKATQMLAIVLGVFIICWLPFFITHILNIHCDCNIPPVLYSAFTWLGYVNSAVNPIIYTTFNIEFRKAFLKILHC
Procedure: as §1, §2
The incubation buffer contained 50 mM tris, 120 mM NaCl, 5 mM KCl, 2 mM CaCl2, 2 mM MgCl2 and 0.1% bovine serum albumin. The buffer was adjusted to pH 7.4 with HCl.
as §3, §4

SMILES	Brain level [1] [ng/g]	Ki [2] [nM]	Selectivity [Ki(D2)/Ki(D3)] [2]	Ki [3] [nM]
Cn1c(N)nnc1SCCCN1CCN(c2cc(C(C)(C)C)nc(C(C)(C)C)n2)CC1 [A*, reference compound]	387	–	–	–
Cn1c(N)nnc1SCCCN1CCN(c2cc(C(F)(F)F)nc(C(C)(C)C)n2)CC1 [B*, reference compound]	143	–	–	–
Cc1nnc(SCCCN2CCN(c3cc(C(C)(C)C)nc(C(C)(C)C)n3)CC2)n1C.Cl [Example 1, 2-tert-Butyl-4-{4-[3-(4-methyl-5-methyl-4H-[1,2,4]triazol-3-ylsulfanyl)-propyl]-piperazin-1-yl}-6-tert-butyl-pyrimidine hydrochloride]	559	1.1	160	176
Cl.Cn1cnnc1SCCCN1CCN(c2cc(C(C)(C)C)nc(C(C)(C)C)n2)CC1 [Example 2, 2-tert-Butyl-4-{4-[3-(4-methyl-4H-[1,2,4]triazol-3-ylsulfanyl)-propyl]-piperazin-1-yl}-6-tert-butyl-pyrimidine hydrochloride]	1835	1.7	75	127
CCCc1cc(N2CCN(CCCSc3nncn3C)CC2)nc(C(C)(C)C)n1.O=C(O)/C=C/C(=O)O [Example 3, 2-tert-Butyl-4-{4-[3-(4-methyl-4H-[1,2,4]triazol-3-ylsulfanyl)-propyl]-piperazin-1-yl}-6-propyl-pyrimidine fumarate]	1000	3.3	125	412
CCCc1cc(N2CCN(CCCSc3nnc(C)n3C)CC2)nc(C(C)(C)C)n1.Cl [Example 4, 2-tert-Butyl-4-{4-[3-(4-methyl-5-methyl-4H-[1,2,4]triazol-3-ylsulfanyl)-propyl]-piperazin-1-yl}-6-propyl-pyrimidine hydrochloride]	483	2.6	83	216
Cc1nnc(SCCCN2CCN(c3cc(C(F)(F)F)nc(C(C)(C)C)n3)CC2)n1C.Cl [Example 5, 2-tert-Butyl-4-{4-[3-(4-methyl-5-methyl-4H-[1,2,4]triazol-3-ylsulfanyl)-propyl]-piperazin-1-yl}-6-trifluoromethyl-pyrimidine hydrochloride]	904	3.7	84	311
Cl.Cn1cnnc1SCCCN1CCN(c2cc(C(F)(F)F)nc(C(C)(C)C)n2)CC1 [Example 6, 2-tert-Butyl-4-{4-[3-(4-methyl-4H-[1,2,4]triazol-3-ylsulfanyl)-propyl]-piperazin-1-yl}-6-trifluoromethyl-pyrimidine hydrochloride]	2384	3.5	134	469
Cl.Cn1cnnc1SCCCN1CCN(c2cc(C(F)F)nc(C(C)(C)C)n2)CC1 [Example 7, 2-tert-Butyl-4-{4-[3-(4-methyl-4H-[1,2,4]triazol-3-ylsulfanyl)-propyl]-piperazin-1-yl}-6-difluoromethyl-pyrimidine hydrochloride]	1430	2.9	146	418
Cc1nnc(SCCCN2CCN(c3cc(C(F)F)nc(C(C)(C)C)n3)CC2)n1C.Cl [Example 8, 2-tert-Butyl-4-{4-[3-(4-methyl-5-methyl-4H-[1,2,4]triazol-3-ylsulfanyl)-propyl]-piperazin-1-yl}-6-difluoromethyl-pyrimidine hydrochloride]	–	1.8	224	401
